Assay results as given in the NIST ThermoML archive (doi:10.1016/j.jct.2010.08.006).

Assays:
[1] = 101.33 kPa, Liquid, Vibrating tube method
[2] = xn = mol fraction of the nth substance listed; conditions: 101 kPa, Liquid, Vibrating tube method

C1CCOC1 [tetrahydrofuran]
[1]
Conditions | mass density [kg/m3]
278.15 K | 903.71
288.15 K | 892.94
298.15 K | 882.04
308.15 K | 871.01
318.15 K | 859.84

C1CCOC1 [tetrahydrofuran] + O
mass density [kg/m3], [2]
Conditions | 278.15 K | 288.15 K | 298.15 K | 308.15 K | 318.15 K
x2 = 0.001775 | 903.78 | 893.01 | 882.11 | 871.08 | 859.91
x2 = 0.003887 | 903.87 | 893.1 | 882.19 | 871.16 | 859.99
x2 = 0.005362 | 903.93 | 893.16 | 882.25 | 871.23 | 860.05
x2 = 0.007677 | 904.02 | 893.25 | 882.35 | 871.32 | 860.15
x2 = 0.01096 | 904.16 | 893.38 | 882.48 | 871.45 | 860.28
x2 = 0.0142 | 904.29 | 893.52 | 882.61 | 871.58 | 860.41
x2 = 0.01729 | 904.42 | 893.65 | 882.74 | 871.71 | 860.53
x2 = 0.01971 | 904.52 | 893.75 | 882.84 | 871.81 | 860.63
x2 = 0.02568 | 904.78 | 894 | 883.09 | 872.06 | 860.88
x2 = 0.03393 | 905.13 | 894.35 | 883.44 | 872.41 | 861.22
x2 = 0.04278 | 905.52 | 894.74 | 883.83 | 872.79 | 861.6

[2H]O[2H] [water-d2] + C1CCOC1
mass density [kg/m3], [2]
Conditions | 278.15 K | 288.15 K | 298.15 K | 308.15 K | 318.15 K
x1 = 0.001848 | 903.83 | 893.06 | 882.16 | 871.13 | 859.96
x1 = 0.003689 | 903.96 | 893.18 | 882.28 | 871.25 | 860.08
x1 = 0.005866 | 904.1 | 893.33 | 882.43 | 871.4 | 860.22
x1 = 0.008339 | 904.27 | 893.5 | 882.59 | 871.56 | 860.38
x1 = 0.01068 | 904.43 | 893.65 | 882.75 | 871.72 | 860.54
x1 = 0.01396 | 904.65 | 893.88 | 882.97 | 871.93 | 860.76
x1 = 0.01768 | 904.91 | 894.13 | 883.23 | 872.19 | 861
x1 = 0.0203 | 905.09 | 894.31 | 883.4 | 872.36 | 861.18
x1 = 0.02398 | 905.35 | 894.57 | 883.66 | 872.62 | 861.43
x1 = 0.02882 | 905.69 | 894.9 | 883.99 | 872.95 | 861.76
x1 = 0.03403 | 906.06 | 895.27 | 884.36 | 873.31 | 862.11
x1 = 0.03668 | 906.25 | 895.46 | 884.55 | 873.49 | 862.3
x1 = 0.04255 | 906.67 | 895.88 | 884.96 | 873.91 | 862.71
